From patent US20200390095A1, “USE OF ERYTHRITOL OR COMPOSITIONS COMPRISING SAME AS MAMMAL-SAFE INSECTICIDES” (Drexel University, priority 2014, published 2020)

Experiments:
[1] = test system: fruit flies; experiment: Longevity comparison of erythritol with other human-safe sweet alcohols; format: in vivo, Drosophila melanogaster; details: 1 M sweetener in standard fly food, 17 days; for longevity compared to sucrose control: log rank test
Procedure: An experiment was conducted to compare the effectiveness of erythritol with other human-safe sweet alcohols: D-mannitol, maltitol, sucrose, and xylitol. The concentration of all sweet alcohols were 1M. Flies were raised for 17 days on standard fly food that contained 1 M concentrations of each sweetener treatment. Death of flies was recorded daily as before; each treatment was replicated on three vials of 10 flies each for 30 subjects/treatment. Differences in longevity were analyzed using the Kaplan-Meier survival analysis log rank test, making all pairwise comparisons among treatments.

[2] = test system: humans; details: oral consumption; cited from earlier work
[3] = test system: Drosophila melanogaster; experiment: Two-way choice experiments, longevity; format: in vivo; details: 30 days
Procedure: Foods containing 2 M erythritol, 1M erythritol and 1M sucrose were prepared for paired presentations in open choice tests. In each treatment one food type contained 0.05% brilliant blue FCF (Fisher 50-727-25). The blue dye allowed visual confirmation of feeding on the dyed food in the pair. The flies were presented with access to two food choices by using a modified cotton stopper with approximately a 1.5 cm diameter hole to connect each pair of food tubes. […] The final choice treatment was between blue 2M erythritol food and non-blue 1M sucrose food (this treatment provides a comparison with the 1 M erythritol/1 M erythritol treatment as a test of dilution of toxicity by alternative food sources; blue guts would confirm erythritol was being consumed in the presence of sucrose). The number of flies with visible blue gut contents and mortality daily were recorded for 30 days. Analyses were conducted with SPSS software v. 20 (IBM corporation 2011). Fly longevity data were analyzed using survival analysis with right-hand censoring of subjects that lived to the end of the study or were lost for reasons other than death. Test were run for differences in survival distributions [Pr(flies alive) versus insect age] using the log-rank (Mantel-Cox) test to make all pairwise comparisons among treatments within each experiment.

[4] = test system: Drosophila melanogaster; experiment: Concentration trials of erythritol on fly longevity; format: in vivo
Procedure: Standard fly foods were prepared as previously described, and then were treated with 2M, 1M, 0.5M and 0.1M concentrations of erythritol, using 0.5M sucrose as control. 0 to 24 hour-old Drosophila were placed on these foods and mortality was recorded daily for 35 days as above. Analyses were conducted with SPSS software v. 20 (IBM corporation 2011). Fly longevity data were analyzed using survival analysis with right-hand censoring of subjects that lived to the end of the study or were lost for reasons other than death. Test were run for differences in survival distributions [Pr(flies alive) versus insect age] using the log-rank (Mantel-Cox) test to make all pairwise comparisons among treatments within each experiment.

[5] = test system: Drosophila melanogaster; experiment: Longevity assay of adult flies raised on food containing sweeteners; format: in vivo; details: repeat study with blue dye food
Procedure: All animals were cultured at 25° C., kept at 50-60% humidity, and were raised under a standard 12:12 light dark cycle. For each experimental treatment, n=30 flies were tested in groups of 10 per tube, and three tubes per treatment. Tubes were kept on their side to minimize subject becoming mired in the food. Foods were replaced twice a week. The total number of fruit flies used for these experiments was 780, with 300 used for two initial trials testing mortality among store-brand sweeteners, 210 used for repeating this with blue dye and pure erythritol, 120 for choice trials and 150 for concentration trials.
Standard Drosophila food for larval culturing consisted of water, cornmeal, yeast, molasses, and agar, as previously described (Chakraborty, et al., 2011, PLoS ONE 6: e20799). […] The addition of cornmeal and yeast assured the flies still received sufficient carbohydrates and protein in addition to any effects of the treatment additives.
Drosophila food was combined with an equal weight/volume (0.0238 g/ml) of one non-nutritive sweetener (TRUVIA, EQUAL, SPLENDA, SWEET'NLOW, or PUREVIA) or a control nutritive sweetener (controls: sucrose or corn syrup). Wild type (Canton S) larvae were initially raised on the standard food, and 0-12 hour old adult flies were transferred to foods containing one non-nutritive sweetener or a control treatment. […] The number of dead flies were scored daily.

OC[C@@H](O)[C@@H](O)[C@H](O)[C@H](O)CO [D-mannitol]
longevity compared to sucrose control [1]: slightly but significantly reduced longevity

OC[C@@H](O)[C@@H](O)CO [erythritol, (2R,3S)-butane-1,2,3,4-tetraol]
tolerability of consumption by humans [2]: very well tolerated
longevity relative to sucrose:sucrose choice ([3]; choice between 1M sucrose and 1M erythritol): significantly decreased longevity
longevity relative to sucrose:sucrose choice ([3]; choice between 1M sucrose and 2M erythritol): significantly reduced
survival distributions, 2M erythritol/1M sucrose choice versus 1M erythritol/1M erythritol ([3]; choice chamber): nearly identical
longevity compared to control food containing 0.5M sucrose ([4]; 0.1M erythritol in food, observations terminated at 35 days): no significant difference in longevity
longevity compared to control food containing 0.5M sucrose ([4]; 0.5M erythritol in food, 35 days): significant reductions in longevity
longevity compared to control food containing 0.5M sucrose ([4]; 1M erythritol in food, 35 days): significant reductions in longevity
effect on longevity compared to all other treatments ([4]; 2M erythritol in food, 35 days): significant and severe effect on longevity
mean fly longevity ([1]; mean ± SE): 4.7 ± 0.15 days
longevity, erythritol versus TRUVIA treatment ([5]; 0.0238 g/ml): did not differ
longevity compared to PUREVIA, EQUAL, sucrose and corn syrup ([5]; 0.0238 g/ml of each sweetener): significant decreases in longevity

OC[C@@H](O)[C@@H](O[C@H]1O[C@H](CO)[C@@H](O)[C@H](O)[C@H]1O)[C@H](O)[C@@H](O)CO [maltitol]
longevity compared to sucrose control [1]: did not differ from the control

OC[C@@H](O)[C@H](O)[C@@H](O)CO [xylitol]
longevity compared to sucrose control [1]: did not differ from the control
